Source: patent publication US20220073874A1, “METHODS FOR ENHANCING DIRECT REPROGRAMMING OF CELLS” (UNIVERSITY OF SOUTHERN CALIFORNIA, priority 2020, published 2022)

How the values were obtained:
[1] = system: mouse embryonic fibroblasts (MEFs); test: EdU incorporation (DNA synthesis, S phase) by flow cytometry
[2] = system: mouse embryonic fibroblasts (MEFs); test: viable cells by FSC and SSC profile via FACS; settings: 6FDDRR, 4 dpi (FIG. 9L)
[3] = system: mouse embryonic fibroblasts (MEFs); test: EU incorporation (transcription rate) by flow cytometry; type: cell-based; settings: Control-Pure and 6FDDRR cells, 4 dpi (FIG. 2L)
[4] = system: mouse embryonic fibroblasts (MEFs); type: cell-based; settings: 6FDD condition, 14 dpi (FIG. 9G)
[5] = system: mouse embryonic fibroblasts (MEFs); test: biotinylated-trimethylpsoralen (bTMP) immunofluorescence, negative DNA supercoiling; type: cell-based; settings: 100 μM for 15 minutes (FIG. 12A-B)
Protocol: Biotinylated-trimethylpsoralen (bTMP) Immunofluorescence. One day after addition of N3 media (and without addition of glial cultures), cells were treated with 1 μM aphidicolin for 1.5-2 hours in N3 media. For control experiments, MEFs were treated with or without 100 μM bleomycin prior to incubation with psoralen. Then cells were incubated with 0.3 mg/mL EZ-Link Psoralen-PEG3-Biotin (Thermo Cat. No: 29986) for 15 minutes. Cultures were then exposed to 3 kJ m-2 of […] light (Fotodyne UV Transilluminator 3-3000 with 15W bulbs) for 15 minutes at room temperature in the dark followed by 3 washes in PBS. Then cells were fixed with cold 70% ethanol for 30 minutes at 4° C. followed by another 3 washes in PBS. Cells were then incubated with Alexa Fluor 594 Streptavidin (Thermo Cat. No: 532356) for one hour at room temperature in the dark, washed with PBS 3 times, and then stained with Hoescht (1:1000) for 10 minutes at room temperature in the dark. Coverslips were mounted onto glass slides using lmmuMount and imaged using the Zeiss LSM 800 confocal microscope.

C[C@@]1(CO)[C@H](O)CC[C@@]2(C)[C@H]1CC[C@H]1C[C@@H]3C[C@@]12CC[C@]3(O)CO [Aphidicolin, aphidicolin]
percent of cells in S phase ([1]; EdU incorporation at 4 dpi, 1 μM for 18 hours, 6FDDRR (FIG. 9J-K)): dramatically reduced | EdU incorporation ([1]; uninfected MEFs, 10 μM for 2 hr (FIG. 12N)): did not incorporate EdU | cell count (total viable cells) [2]: only slightly reducing | transcription rates [3]: increased

CO[C@@]12[C@H](COC(N)=O)C3=C(C(=O)C(C)=C(N)C3=O)N1C[C@@H]1N[C@@H]12 [mitomycin C]
iMN conversion [4]: impaired

bleomycin
biotinylated TMP intercalation [5]: decreased
